Test results reported in ChEMBL document CHEMBL1134637, “Fluorescent tricyclic analogues of acyclovir and ganciclovir. A structure-antiviral activity study” (2001).
≈ marks a conversion by molar mass, not a printed value.

Columns and labels:
Assay type in all cases: functional
[1] = test system: Human alphaherpesvirus 1; assay: Minimal inhibitory concentration to reduce virus-induced cytopathicity against TK-/TK+ HSV-1 of VMW 837
[2] = Minimal cytotoxic concentration (MCC) to cause a microscopically detectable change in normal cell morphology
[3] = test system: Human alphaherpesvirus 1; assay: Minimal inhibitory concentration to reduce virus-induced cytopathicity against F strain of human Herpes Simplex Virus-1 (HSV-1)
[4] = test system: Human alphaherpesvirus 2; assay: Minimal inhibitory concentration to reduce virus-induced cytopathicity against 196 strain of human Herpes Simplex Virus-2
[5] = test system: Human alphaherpesvirus 1; assay: Minimal inhibitory concentration to reduce virus-induced cytopathicity against McIntyre strain of human Herpes Simplex Virus-1
[6] = test system: Human alphaherpesvirus 1; assay: Minimal inhibitory concentration to reduce virus-induced cytopathicity against Thymidine kinase deficient(TK-) HSV-1 of Acyclovir
[7] = test system: Human alphaherpesvirus 2; assay: Minimal inhibitory concentration to reduce virus-induced cytopathicity against Lyons strain of human Herpes Simplex Virus-2
[8] = test system: Human alphaherpesvirus 1; assay: Minimal inhibitory concentration to reduce virus-induced cytopathicity against KOS strain of human Herpes Simplex Virus -1
[9] = test system: Human alphaherpesvirus 2; assay: Minimal inhibitory concentration to reduce virus-induced cytopathicity against G strain of human Herpes Simplex Virus-2
[10] = test system: Vesicular stomatitis virus; assay: Minimal inhibitory concentration to reduce virus-induced cytopathicity against VSV
[11] = test system: Vaccinia virus; assay: Minimal inhibitory concentration to reduce virus-induced cytopathicity against VV; settings: Orthopoxvirus vaccinia
[12] = test system: Human alphaherpesvirus 1; assay: Minimal inhibitory concentration to reduce virus-induced cytopathicity against Thymidine kinase deficient(TK-) HSV-1 (Acyclovir)
[13] = test system: Human alphaherpesvirus 1; assay: Minimal inhibitory concentration to reduce virus-induced cytopathicity against TK-/TK+ HSV-1 (VMW 837)
[14] = Human alphaherpesvirus 1, read-out: MIC
[15] = Human alphaherpesvirus 2, read-out: MIC

Structure (SMILES)	MIC [1] [µg/mL]	MCC [2] [µg/mL]	MIC [3, 14] [µg/mL]	MIC [4] [µg/mL]	MIC [5] [µg/mL]	MIC [6] [µg/mL]	MIC [7] [µg/mL]	MIC [8] [µg/mL]	MIC [9, 15] [µg/mL]	MIC [10] [µg/mL]	MIC [11] [µg/mL]	MIC [9]	MIC [3] [pug ml-1]	MIC [12] [µg/mL]	MIC [13] [µg/mL]
CC(=O)OCCOCn1cnc2c(O)n3cc(-c4ccc5ccccc5c4)nc3nc21	> 16	> 80	> 16	> 16	> 16	> 16	> 16	> 16	> 16	> 16	> 16	–	–	–	–
COc1ccc(-c2nc3nc4c(ncn4COCCO)c(O)n3c2-c2ccc(C(c3ccccc3)c3ccccc3)cc2)cc1	> 16	80	> 16	> 16	> 16	> 16	> 16	> 16	–	> 16	> 16	>16 pug ml-1	–	–	–
OCCOCn1cnc2c(O)n3cc(-c4ccc5ccccc5c4)nc3nc21	12.8 (≈ 34.1 µM)	> 80	9.6 (≈ 25.6 µM)	16 (≈ 42.6 µM)	9.6 (≈ 25.6 µM)	16 (≈ 42.6 µM)	9.6 (≈ 25.6 µM)	5.8 (≈ 15.5 µM)	6.4 (≈ 17 µM)	> 16	> 16	–	–	–	–
OCCOCn1cnc2c(O)n3c(C(c4ccccc4)(c4ccccc4)c4ccccc4)cnc3nc21	> 16	80	> 16	> 16	> 16	> 16	> 16	> 16	> 16	> 16	> 16	–	–	–	–
COc1cccc(-c2cn3c(O)c4ncn(COCCO)c4nc3n2)c1	9.6 (≈ 27 µM)	> 400	1.92 (≈ 5.4 µM)	3.2 (≈ 9.01 µM)	0.64 (≈ 1.8 µM)	> 80	3.2 (≈ 9.01 µM)	1.92 (≈ 5.4 µM)	1.92 (≈ 5.4 µM)	240 (≈ 675 µM)	> 400	–	–	–	–
OCC(CO)OCn1cnc2c(O)n3cc(-c4ccccc4)nc3nc21	0.5 (≈ 1.41 µM)	> 175	0.005 (≈ 0.0141 µM)	0.02 (≈ 0.0563 µM)	0.005 (≈ 0.0141 µM)	–	0.005 (≈ 0.0141 µM)	0.02 (≈ 0.0563 µM)	0.3 (≈ 0.844 µM)	> 175	> 90	–	–	–	–
COc1ccc(-c2cn3c(O)c4ncn(COC(CO)CO)c4nc3n2)cc1	0.04 (≈ 0.104 µM)	> 80	0.005 (≈ 0.013 µM)	0.08 (≈ 0.208 µM)	0.005 (≈ 0.013 µM)	> 16	0.02 (≈ 0.0519 µM)	0.005 (≈ 0.013 µM)	0.03 (≈ 0.0778 µM)	> 80	> 80	–	–	–	–
O=c1[nH]c(=O)n([C@H]2C[C@H](O)[C@@H](CO)O2)cc1/C=C/Br [BRIVUDINE]	> 100	> 400	0.02 (≈ 0.06 µM)	> 100	0.01 (≈ 0.03 µM)	90 (≈ 270 µM)	> 100	0.02 (≈ 0.06 µM)	> 100	> 200	9.2 (≈ 27.6 µM)	–	–	–	–
CCc1cn2c(O)c3ncn(COCCO)c3nc2n1	48 (≈ 173 µM)	> 400	9.6 (≈ 34.6 µM)	9.6 (≈ 34.6 µM)	9.6 (≈ 34.6 µM)	240 (≈ 866 µM)	9.6 (≈ 34.6 µM)	1.92 (≈ 6.92 µM)	9.6 (≈ 34.6 µM)	> 400	240 (≈ 866 µM)	–	–	–	–
OCCOCn1cnc2c(O)n3c(CO)cnc3nc21	> 3.2	> 16	> 3.2	> 3.2	> 3.2	> 3.2	> 3.2	> 3.2	> 3.2	> 3.2	> 3.2	–	–	–	–
COc1ccc(OC)c(-c2cn3c(O)c4ncn(COCCO)c4nc3n2)c1	> 16	80	16 (≈ 41.5 µM)	> 16	16 (≈ 41.5 µM)	> 16	> 16	9.6 (≈ 24.9 µM)	9.6 (≈ 24.9 µM)	> 16	> 16	–	–	–	–
OCCOCn1cnc2c(O)n3c(-c4ccccc4)c(-c4ccccc4)nc3nc21	> 16	> 16	9.6 (≈ 23.9 µM)	9.6 (≈ 23.9 µM)	9.6 (≈ 23.9 µM)	> 16	16 (≈ 39.9 µM)	1.92 (≈ 4.78 µM)	1.92 (≈ 4.78 µM)	> 16	> 16	–	–	–	–
Nc1nc2c(ncn2COC(CO)CO)c(=O)[nH]1 [GANCICLOVIR]	0.07 (≈ 0.274 µM)	> 100	0.004 (≈ 0.0157 µM)	0.02 (≈ 0.0784 µM)	0.006 (≈ 0.0235 µM)	0.48 (≈ 1.88 µM)	0.04 (≈ 0.157 µM)	0.006 (≈ 0.0235 µM)	0.01 (≈ 0.0392 µM)	> 100	> 100	–	–	–	–
COc1ccccc1-c1cn2c(O)c3ncn(COCCO)c3nc2n1	9.6 (≈ 27 µM)	400	1.92 (≈ 5.4 µM)	9.6 (≈ 27 µM)	1.92 (≈ 5.4 µM)	> 80	9.6 (≈ 27 µM)	1.92 (≈ 5.4 µM)	1.92 (≈ 5.4 µM)	> 80	> 80	–	–	–	–
Cc1ccc(-c2cn3c(O)c4ncn(COC(CO)CO)c4nc3n2)cc1	0.1 (≈ 0.271 µM)	80	0.01 (≈ 0.0271 µM)	0.13 (≈ 0.352 µM)	0.08 (≈ 0.217 µM)	> 16	0.08 (≈ 0.217 µM)	0.02 (≈ 0.0541 µM)	0.13 (≈ 0.352 µM)	> 16	> 16	–	–	–	–
OCCOCn1cnc2c(O)n3c(-c4ccc(C(c5ccccc5)c5ccccc5)cc4)c(-c4ccccc4)nc3nc21	> 16	80	> 16	> 16	> 16	> 16	> 16	> 16	> 16	> 16	> 16	–	–	–	–
Cc1ccc(-c2cn3c(O)c4ncn(COCCO)c4nc3n2)cc1	82 (≈ 242 µM)	250	0.07 (≈ 0.206 µM)	0.2 (≈ 0.589 µM)	0.07 (≈ 0.206 µM)	9.2 (≈ 27.1 µM)	0.4 (≈ 1.18 µM)	0.43 (≈ 1.27 µM)	0.93 (≈ 2.74 µM)	> 40	> 40	–	–	–	–
Cc1c(-c2ccccc2)nc2nc3c(ncn3COC(CO)CO)c(O)n12	0.02 (≈ 0.0541 µM)	> 400	0.005 (≈ 0.0135 µM)	0.005 (≈ 0.0135 µM)	0.005 (≈ 0.0135 µM)	3.2 (≈ 8.66 µM)	0.02 (≈ 0.0541 µM)	0.02 (≈ 0.0541 µM)	0.03 (≈ 0.0812 µM)	> 240	> 400	–	–	–	–
Cc1nc2nc3c(ncn3COCCO)c(O)n2c1C(c1ccccc1)(c1ccccc1)c1ccccc1	> 16	80	> 16	> 16	> 16	> 16	> 16	> 16	> 16	> 16	> 16	–	–	–	–
OCC(CO)OCn1cnc2c(O)n3ccnc3nc21	–	400	0.7 (≈ 2.51 µM)	2 (≈ 7.16 µM)	0.7 (≈ 2.51 µM)	400 (≈ 1430 µM)	0.7 (≈ 2.51 µM)	0.7 (≈ 2.51 µM)	2 (≈ 7.16 µM)	–	400 (≈ 1430 µM)	–	–	–	–
OCCOCn1cnc2c(O)n3ccnc3nc21	–	400	–	70 (≈ 281 µM)	20 (≈ 80.2 µM)	400 (≈ 1600 µM)	10 (≈ 40.1 µM)	20 (≈ 80.2 µM)	20 (≈ 80.2 µM)	–	400 (≈ 1600 µM)	–	4	–	–
Cc1c(-c2ccccc2)nc2nc3c(ncn3COCCO)c(O)n12	3.2 (≈ 9.43 µM)	300	0.04 (≈ 0.118 µM)	0.1 (≈ 0.295 µM)	0.06 (≈ 0.177 µM)	3.2 (≈ 9.43 µM)	0.07 (≈ 0.206 µM)	0.11 (≈ 0.324 µM)	0.16 (≈ 0.471 µM)	> 200	> 200	–	–	–	–
OCCOCn1cnc2c(O)n3cc(-c4ccccc4)nc3nc21	> 70	> 100	0.7 (≈ 2.15 µM)	0.2 (≈ 0.615 µM)	0.2 (≈ 0.615 µM)	–	0.7 (≈ 2.15 µM)	0.4 (≈ 1.23 µM)	1.3 (≈ 4 µM)	> 100	> 100	–	–	–	–
Nc1nc2c(ncn2COCCO)c(=O)[nH]1 [ACYCLOVIR]	–	> 400	0.08 (≈ 0.355 µM)	0.07 (≈ 0.311 µM)	0.13 (≈ 0.577 µM)	–	0.28 (≈ 1.24 µM)	0.13 (≈ 0.577 µM)	0.19 (≈ 0.844 µM)	> 80	> 80	–	–	19 (≈ 84.4 µM)	7.1 (≈ 31.5 µM)
COc1ccc(-c2cn3c(O)c4ncn(COCCO)c4nc3n2)cc1	21 (≈ 59.1 µM)	150	0.07 (≈ 0.197 µM)	0.2 (≈ 0.563 µM)	0.03 (≈ 0.0844 µM)	5.9 (≈ 16.6 µM)	0.2 (≈ 0.563 µM)	0.1 (≈ 0.281 µM)	0.15 (≈ 0.422 µM)	> 40	> 40	–	–	–	–
Cc1nc2nc3c(ncn3COCCO[Si](C)(C)C(C)(C)C)c(O)n2c1C(c1ccccc1)(c1ccccc1)c1ccccc1	> 10	40	–	–	–	> 10	–	> 10	> 10	> 10	2 (≈ 3.23 µM)	–	–	–	–
O=[N+]([O-])c1ccc(-c2cn3c(O)c4ncn(COCCO)c4nc3n2)cc1	> 16	80	16 (≈ 43.2 µM)	> 16	16 (≈ 43.2 µM)	> 16	> 16	9.6 (≈ 25.9 µM)	9.6 (≈ 25.9 µM)	> 16	> 16	–	–	–	–
COc1ccc(-c2cn3c(O)c4ncn(COCCO)c4nc3n2)c(OC)c1	1.92 (≈ 4.98 µM)	80	1.92 (≈ 4.98 µM)	1.92 (≈ 4.98 µM)	1.92 (≈ 4.98 µM)	> 16	1.92 (≈ 4.98 µM)	1.92 (≈ 4.98 µM)	3.2 (≈ 8.3 µM)	16 (≈ 41.5 µM)	16 (≈ 41.5 µM)	–	–	–	–
O=c1c2ncn(COCCO)c2nc2n(Cc3ccccc3)c(-c3ccccc3)cn12	> 100	> 100	–	–	–	> 100	–	> 100	–	> 100	> 100	> 100 µg/mL	–	–	–
